Test results: patent EP3102204B1 (The University Of Mississippi, priority 2014, dated 2015)
Like-named read-outs stand apart in the source and are kept apart here.

Experiments:
[1] = tested on: σ-1 receptor; assay: Cell uptake studies in transfected CHO cells; details: at 120 min
Method: Control CHO cells (transfected with a vector not containing the σ-1 receptor gene - to serve as a negative control) and CHO cells transfected with a vector containing σ-1 receptor cDNA (to serve as a positive control for σ-1 receptor expression in cells) were used for the uptake assays. […] The incubated cells were subsequently washed, lysed and counted for radioactivity. All collected data were normalized for amount of protein present in each well.
Cells CHO cells were grown in Ham's F-12 medium. For uptake studies CHO cells were transfected using Lipofectamine 2000 (Invitrogen, Carlsbad, CA, USA) and either pcDNA (empty vector, negative control) or σ-1 receptor gene (OPRS1, accession number NM_005866.2, origin, Rockville, MD, USA) following manufacturer's directions. […] Twenty-four hours later, CHO cells were transfected with either 0.8 µg pcDNA (empty vector, control), or 0.8 µg sigma-1 DNA. […] A portion of each lysate (250 µL) was transferred to a glass tube and activity was measured with a Cobra II γ counter (Packard-Perkin Elmer, Waltham, MA, USA). Protein content from each well was measured by Bradford assay. The same protocol was followed for (+)-[^3H]pentazocine, except the activity was measured with a liquid scintillation counter (Beckman Coulter LS 6500, Brea, CA, USA).

[2] = in vitro; format: in vitro ADME, rat
Method: Metabolic stability of AZ_66 (1µM) was performed in Ammonium acetate buffer (50mM, pH 7.4) with Rat liver microsomes (0.5mg) at 37 °C in 0.5ml of incubation mixture. The incubation mixture composed of Ammonium acetate buffer (50mM, pH 7.4), Magnesium chloride (3mM), a NADPH regenerating system consisting of NADP (1mM), glucose-6-phosphate (5mM), and glucose-6-phosphate dehydrogenase (1Unit/mL). The Substrate and microsomes were pre incubated at 37°C for 5 min before starting the reaction. The reactions were started by the addition of regenerating system and carried out at 37°C in a shaking water bath for 60min. The incubations were stopped by adding an equal volume of ice cold acetonitrile at predetermined time points (0, 5, 15, 30, 60 min). The samples were centrifuged for 10min at 4°C and the supernatant was injected into UPLC/MS/MS. Control incubation without NADPH was also performed and these served as 100% value. All microsomal incubations were conducted using the same lot of microsomes.
In vitro half-life and CLint: The percent of the parent compound remaining is plotted versus time. The slope of the line gives the rate constant k for the disappearance of parent compound, from which an in vitro t1/2 can be calculated. CLint can be calculated using the following formula CLint = k(min^−1) × ([V](L))/([P](mg)) = (L/mg×min) [formula] […]

[3] = biological target: dopamine transporters; assay: Non-σ competition binding assay, [3H]WIN35,428; details: rat brain homogenates; read-out: DAT Ki
Method: (§1) Compounds were tested at various non-σ target sites to evaluate selectivity because cocaine interacts with these sites (dopamine, serotonin and norepinephrine transporters) or historic "sigma" ligands interact with them (opioid, NMDA, dopamine D2, 5-HT2 receptors). The compounds were tested in competition binding assays using rat brain homogenates as previously published. […] The results were reported as Ki in nM.

[4] = biological target: serotonin transporters; assay: Non-σ competition binding assay, [3H]paroxetine; details: rat brain homogenates; read-out: SERT Ki
Method: as §1

[5] = biological target: norepinephrine transporters; assay: Non-σ competition binding assay, [3H]nisoxetine; details: rat brain homogenates; read-out: NET Ki
Method: as §1

[6] = biological target: NMDA receptors; assay: Non-σ competition binding assay, [3H]TCP; details: rat brain homogenates
Method: as §1

[7] = biological target: T1, dopamine D2 receptors (Rattus norvegicus, UniProt P61169); assay: Non-σ competition binding assay, [3H](-)-sulpiride; details: rat brain homogenates
T1 construct: from tissue; host or cells: rat brain homogenate
Method: as §1

[8] = biological target: 5-HT2 receptors; assay: Non-σ competition binding assay, [3H]ketanserin; details: rat brain homogenates
Method: as §1

[9] = tested on: Male, Swiss Webster mice; assay: Cocaine-induced convulsions; format: in vivo; details: pretreatment i.p. 15 min before cocaine 70 mg/kg i.p.
[10] = tested on: Male, Swiss Webster mice; assay: Cocaine-induced locomotor activity; format: in vivo; details: pretreatment i.p. 15 min before cocaine 20 mg/kg i.p.
Method: Male, Swiss Webster mice were acclimated to the treatment room and then to the chambers of the automated activity monitoring system (San Diego Instruments, San Diego, CA). […] The total locomotor activity (ambulatory, fine and rearing movements) of the mice was recorded for the next 30 min as the number of disruptions made by them in the 16x16 photobeam grid of their testing chamber.

[11] = tested on: Male, Swiss Webster mice; assay: Expression of cocaine-induced sensitization; format: in vivo; details: compound on Day 15 before cocaine 10 mg/kg i.p.
Method: Male, Swiss Webster mice were acclimated as detailed above. For five consecutive days (Days 1-5), the mice were pretreated (i.p.) with saline, then challenged 15 min later with cocaine (10mg/kg, i.p.). The total locomotor activity (ambulatory, fine and rearing movements) of the mice was recorded for the next 30 min. A 10 day drug free period followed and on Day 15, the mice were administered saline (i.p.) or compound (0.1-20mg/kg), followed15 min later with cocaine (10mg/kg, i.p.). Locomotor activity was then recorded for the next 30 min.

[12] = tested on: Male, Swiss Webster mice; assay: Methamphetamine-induced locomotor activity; format: in vivo; details: pretreatment i.p. 15 min before methamphetamine 1 mg/kg i.p.
Method: (§2) Male, Swiss Webster mice were acclimated as detailed above. […] The total locomotor activity (ambulatory, fine and rearing movements) of the mice was recorded for the next 30 min as the number of disruptions made by them in the 16x16 photobeam grids surrounding their testing chambers.

[13] = tested on: Male, Swiss Webster mice; assay: Methamphetamine-induced dopamine depletions; format: in vivo; details: methamphetamine 5 mg/kg x 4 at 2 hr intervals; striatal dopamine one week later
Method: Male, Swiss Webster mice were injected (i.p.) with saline or compound (0-20mg/kg), followed 15 min later with either saline (- METH) or methamphetamine (5mg/kg) at 2hr intervals, a total of four times. Striatal dopamine levels were measured one week later.

[14] = pKa by potentiometric titration; format: physicochemical
Method: A solution of 0.01 M sodium hydroxide was prepared and the pH measured as 11.9. Similarly, 0.01 M hydrochloric acid solution was prepared and the pH measured as 2.07. […] To the same sample, 0.1 mL portions of hydrochloric acid were added and pH recorded until it became constant. A titration curve was then plotted as pH versus the volume of base/acid added.

[15] = biological target: σ-1 receptors; assay: In vitro radioligand binding assays of CM304 at sigma receptors; set-up: species or system rat
Method: Competition binding assays were performed as previously described. Briefly, radioligands were used to tag the targeted sites under standard conditions.

[16] = in vitro; format: in vitro ADME; set-up: dose or concentration left out as unconfirmed; details: pH 7.4; mouse liver microsomes, NADPH-generating system, 37 °C
Method: The reaction was initiated by adding cofactors and quenched at designated time points (0, 5, 10, 15, 30, 45, 60 min) by the addition of an equal volume of ice-cold acetonitrile (ACN). […].
The basic incubation mixture consisted of 5 mM substrate, 1 mg/mL microsomal protein, 3 mM MgCl2, 1 mM NADP, 5 mM glucose-6-phosphate, 1 IU/mL glucose-6-phosphate dehydrogenase, 100 mM Tris HCl buffer (pH 7.4) in a final volume of 1 mL. The reaction was initiated by adding cofactors and quenched at designated time points (0, 5, 10, 15, 30, 45, 60 min) by addition of an equal volume of ice-cold ACN. The mixture was centrifuged at 3000 rpm for 10 min, and the supernatant was analyzed by UPLC/MS/MS.

[17] = biological target: T2, σ-2 (Rattus norvegicus, UniProt Q5U3Y7); assay: σ receptor assay: σ-2 binding with [3H]DTG plus (+)-pentazocine; details: for Ki: rat brain homogenates
T2 construct: from tissue; host or cells: rat brain homogenate (membrane protein)
T2 sequence (Q5U3Y7 1-176): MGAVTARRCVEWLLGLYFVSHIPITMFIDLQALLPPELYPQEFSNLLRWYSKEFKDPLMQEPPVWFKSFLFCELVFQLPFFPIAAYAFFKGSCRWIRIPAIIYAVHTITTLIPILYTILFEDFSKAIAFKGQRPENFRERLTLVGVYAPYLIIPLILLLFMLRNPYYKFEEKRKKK
Method: (§3) Compounds were evaluated for σ -1 and σ -2 binding in rat brain homogenates. […] The assays were terminated with ice-cold 10 mM Tris-HCl, pH 8.0, followed by two washes through glass fiber filters that were pre-soaked for at least 30 min in 0.5% polyethyleneimine.

[18] = biological target: σ-1 (Rattus norvegicus, UniProt Q9R0C9); assay: σ receptor assay: σ-1 binding with [3H](+)-pentazocine; details: rat brain homogenates; CM table
Method: as §3

[19] = tested on: Male, Swiss Webster mice; assay: Development of cocaine-induced sensitization; format: in vivo; details: pretreatment Days 1-5, cocaine 10 mg/kg i.p.
Method: as §2, with “of” for “surrounding”, “chamber on each of the five days. A 10 day drug-free period followed. On Day 15, all of the mice were pre-administered (i.p.) saline followed by cocaine (10mg/kg, i.p.), and locomotor activity quantified for the next 30 min.” for “chambers.”

[20] = biological target: σ-1 receptors (Mus musculus, UniProt O55242); assay: Small-animal PET imaging in mice (brain); format: in vivo
[21] = analytical reverse-phase HPLC
[22] = tested on: σ-1 receptor; details: cited from earlier work

Sequence of σ-1 receptors (Mus musculus, UniProt O55242) (O55242 whole entry): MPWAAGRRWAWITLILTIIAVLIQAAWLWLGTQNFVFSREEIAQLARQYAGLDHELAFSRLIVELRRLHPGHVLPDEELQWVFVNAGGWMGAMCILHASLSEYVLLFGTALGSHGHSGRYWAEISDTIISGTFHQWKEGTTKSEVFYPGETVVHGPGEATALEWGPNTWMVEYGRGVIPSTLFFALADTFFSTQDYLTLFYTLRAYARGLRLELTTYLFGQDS
Sequence of σ-1 (Q9R0C9 whole entry): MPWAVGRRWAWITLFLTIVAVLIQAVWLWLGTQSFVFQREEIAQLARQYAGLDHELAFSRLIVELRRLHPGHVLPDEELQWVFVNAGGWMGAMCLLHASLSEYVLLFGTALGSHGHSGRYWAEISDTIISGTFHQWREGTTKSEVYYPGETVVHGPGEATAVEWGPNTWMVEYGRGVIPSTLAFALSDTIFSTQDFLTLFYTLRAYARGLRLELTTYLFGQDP
T1 sequence (P61169 whole entry): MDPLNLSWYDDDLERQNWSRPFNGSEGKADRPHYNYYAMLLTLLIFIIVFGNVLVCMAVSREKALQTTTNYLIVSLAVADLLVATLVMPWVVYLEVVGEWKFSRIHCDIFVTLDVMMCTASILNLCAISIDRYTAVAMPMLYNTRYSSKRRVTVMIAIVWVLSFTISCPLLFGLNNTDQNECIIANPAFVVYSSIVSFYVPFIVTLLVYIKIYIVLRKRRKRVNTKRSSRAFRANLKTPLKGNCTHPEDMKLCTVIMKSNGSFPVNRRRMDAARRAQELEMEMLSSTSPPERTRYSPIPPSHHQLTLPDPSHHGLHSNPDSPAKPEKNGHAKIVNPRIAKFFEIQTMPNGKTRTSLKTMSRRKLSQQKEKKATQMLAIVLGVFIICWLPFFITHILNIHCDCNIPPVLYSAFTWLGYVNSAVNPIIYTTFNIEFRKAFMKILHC

For `CC(C)=CCN1CC[C@]2(C)c3cc(O)ccc3C[C@H]1[C@H]2C` [(+)-[^3H] pentazocine, reference compound], which “uptake in cells transfected with σ-1 receptor cDNA versus control CHO cells” value [1] is on record?
Its value is 3.6 fold.

With `CC(CCCn1c(=O)sc2cc(F)ccc21)N1CCN(C2CCCCC2)CC1` (stereo not shown) [AZ_66] as the compound, how does the “loss of substrate in the absence of cofactor” value ([2]; control incubation without NADPH) read?
The value was “no loss of substrate”.

And the metabolised at 1 h, 1 µM ([2]; rat, microsomes, pH 7.4, by 60 min, read-out: added substrate metabolized by microsomes)?
The metabolised at 1 h, 1 µM was roughly 25%.

Which results are given for `S=c1sc2ccccc2n1CCCCN1CCN(C2CCCCC2)CC1` [CM156]?
Ki [3]: 1175 ± 10 nM; Ki [4]: 1400 ± 152 nM; Ki [5]: > 10000 nM; Ki [6]: > 10000 nM; Ki [7]: 1041 ± 9 nM; Ki [8]: 1330 ± 159 nM; attenuation of cocaine-induced convulsions [9]: significant attenuation; attenuation of cocaine-induced locomotor activity [10]: significant attenuation; expression of cocaine-induced sensitization (behavioral sensitization) [11]: significant attenuation; locomotor stimulant effects of methamphetamine [12]: attenuated; neurotoxic effects resulting from methamphetamine exposures (dopamine depletions) [13]: attenuated

Which results are given for `Cl.O=c1sc2cc(CCCF)ccc2n1CCN1CCCCCC1` [CM304, 3-(2-(azepan-1-yl)ethyl)-6-(3-fluoropropyl)benzo[d]thiazol-2(3H)-one hydrochloride]?
attenuation of cocaine-induced convulsions [9]: significantly attenuated; experimental pKa [14]: 10.4; Ki [15]: 0.0025 nM; half-life [16]: 4.2 min

For `O=c1oc2ccccc2n1CCCCN1CCN(C2CCCCC2)CC1` [CM 121], which “preference (selectivity) for the σ-2 subtype” value ([17]; σ-2 over σ-1) is on record?
Its value is “six fold”.

For `O=c1sc2ccccc2n1CCCCN1CCN(C2CCCCC2)CC1` [CM 145], which Ki ([17]; CM table, read-out: Ki (nM) […]2) is on record?
Its Ki is 0.39 ± 0.06 nM.

Which Ki ([17]; CM table, read-out: Ki (nM) […]2) does the source give for `c1ccc2c(c1)ccn2CCCCN1CCN(C2CCCCC2)CC1` [CM 341] here?
Its Ki is 1.9 ± 0.16 nM.

With `Fc1ccc(-c2cn(CCCCN3CCN(C4CCCCC4)CC3)c3ccccc23)cc1` [CM 349] as the compound, how does the Ki [18] read?
The Ki was 90.9 ± 12.3 nM.

What about the Ki ([17]; CM table, read-out: Ki (nM) […]2) of the same compound?
The Ki was 22.6 ± 1.13 nM.

Which Ki [18] does the source give for `Fc1ccc(-c2cn(CCCCN3CCN(c4ccc(F)cc4)CC3)c3ccccc23)cc1` [CM 350] here?
Its Ki is 1200 ± 73.9 nM.

With `Cn1c(=O)n(CCCCN2CCN(C3CCCCC3)CC2)c2ccccc21` [CM 396] as the compound, how does the Ki ([17]; CM table, read-out: Ki (nM) […]2) read?
The Ki was 2.57 ± 0.47 nM.

For `CC(=O)c1ccc2c(c1)oc(=O)n2CCCCN1CCN(c2ccc(F)cc2)CC1` [SN-79], which Ki ([17]; SN table, read-out: Ki (nM) σ2) is on record?
The Ki was 6.06 nM.

And the “attenuation of cocaine-induced convulsions” value [9]?
Its value is “significant attenuation”.

And the “attenuation of cocaine-induced locomotor activity” value [10]?
Its value is “significant attenuation”.

And the “development of cocaine-induced sensitization” value [19]?
Its value is “attenuates the development of cocaine-induced sensitization”.

What about the “expression of cocaine-induced sensitization (behavioral sensitization)” value [11] of the same compound?
Its value is “attenuates the expression of cocaine-induced sensitization”.

For `O=c1sc2cc(CCC[18F])ccc2n1CCN1CCCCCC1` [[^18F]FTC-146, 6-(3-fluoropropyl) -3-(2-(azapan-1-yl)ethyl) benzo [d] thiazol-2 (3H) -one], which “reduction of [18F]FTC-146 binding in the brain” value ([20]; at 60 min, pre-treatment with CM304 1 mg/kg 10 minutes prior to radioligand) is on record?
Its value is 83%.

What about the tissue uptake ([20]; mouse, brain, iv, read-out: maximum uptake in brain) of the same compound?
The tissue uptake was roughly 17 %ID/g.

And the “stability of formulated version in saline/ethanol (9:1)” value [21]?
The value was “at least 5.5 hours”.

What about the “uptake in cells transfected with σ-1 receptor cDNA versus control CHO cells” value [1] of the same compound?
The value was 4 fold.

With `[17F]CCC1OC2(CCN(Cc3ccccc3)CC2)c2ccccc21` (stereo not shown) [[^18F]fluspidine] as the compound, how does the “brain level relative to its maximum” value ([22]; at 60 minutes post injection) read?
Its value is 81%.

What about the “reduction in brain uptake” value ([22]; biodistribution in mice, over 2 hours) of the same compound?
Its value is 40%.

And the “time of maximum uptake in the brain” value ([22]; post injection)?
The value was 30 min.
